Measurements from paper PMC2852842, “Marine Natural Meroterpenes: Synthesis and Antiproliferative Activity” (Marine Drugs, 2010).
Values after ≈ are worked out from the molar mass of the structure shown. Read-outs that look alike come from different tables or passages of the source.

How the values were obtained:
[1] = tested on: Sphaerechinus granularis eggs; experiment: Inhibition of sea urchin egg division; type: cell-based; settings: for IC50: read-out: IC50 S. granularis
Protocol: (§1) For cytotoxic assays on sea urchins, meroterpenes were dissolved in an egg suspension (described in the experimental section), and their ability to inhibit 50% of cell division (IC50) was estimated. Each experiment was carried out in triplicate and an average taken.
(§2) For antiproliferative assays on sea urchin eggs, we used a previously described method.

[2] = tested on: Paracentrotus lividus eggs; experiment: Inhibition of sea urchin egg division; type: cell-based
Protocol: as §1, §2

Micrococcus luteus = experiment: Microtiter Broth Dilution antibacterial assay; type: cell-based; settings: for antibacterial effect (in words): M. luteus; for MIC: Micrococcus luteus, 24 h
Protocol: (§3) The Microtiter Broth Dilution Method on gram negative (Escherichia coli) and gram positive (Micrococcus luteus) bacteria was used. Meroterpenes dissolved in DMSO were added to bacteria suspensions (5:100 v:v) for 24 hours. The assay was carried out in triplicate. Bacterial growth was evaluated by absorbance measurement (630 nm). The minimum concentration that inhibits (MIC) bacterial growth was determined for each compound on each bacterial strain.
(§4) The antibacterial assay used was based on the previously described method published by the […].

Escherichia coli = experiment: Microtiter Broth Dilution antibacterial assay; type: cell-based; settings: for antibacterial effect (in words): E. coli
Protocol: as §3, §4

[3] = tested on: MCF7, PA1, PC3, L-929 cells and human normal fibroblasts; experiment: Resazurin reduction test (RRT) cytotoxicity, whole panel of cell lines; type: cell-based; settings: span over the cell lines, 48 hour exposure, read-out: IC50, varied with the cell lines
Protocol: To provide information on their antiproliferative activity against solid cancers, the six meroterpenes were tested on three human carcinoma cell lines corresponding to cancers commonly observed in Western countries: MCF7 (breast), PA1 (ovary) and PC3 (prostate). To obtain additional information on their specificity for human cell lines and their specificity for cancer versus normal cell lines, each compound was tested versus L-929 murine immortalized cells and human normal fibroblasts. To mimic what happens in vivo, assays were carried out on exponentially growing cells cultured in the presence of 10% serum. The growth inhibitory effect was determined by measuring, after a 48 hour exposure to each chemical, the metabolic activity of treated and control cultures using the resazurin reduction test (RRT), which measures the amount of fluorescent resofurin produced by living cells. […] A dose-dependent inhibition of cell proliferation was only observed for epiconicol (3a). […]
The cytotoxicity of each treatment was determined after a 48 h exposure to each chemical (6 concentrations in triplicate, each in DMSO 0.5%) by means of the resazurin reduction test (RRT) that measures the amount of fluorescent resorufin produced by living cells. […] IC50 values (mean ± S.D.) were calculated with the ALLFIT program and were expressed in μM.

[4] = tested on: PA1 ovary teratocarcinoma cells; experiment: Resazurin reduction test (RRT) cytotoxicity; type: cell-based, human; settings: for IC50: Homo sapiens
Protocol: (§5) To provide information on their antiproliferative activity against solid cancers, the six meroterpenes were tested on three human carcinoma cell lines corresponding to cancers commonly observed in Western countries: MCF7 (breast), PA1 (ovary) and PC3 (prostate). To obtain additional information on their specificity for human cell lines and their specificity for cancer versus normal cell lines, each compound was tested versus L-929 murine immortalized cells and human normal fibroblasts. To mimic what happens in vivo, assays were carried out on exponentially growing cells cultured in the presence of 10% serum. The growth inhibitory effect was determined by measuring, after a 48 hour exposure to each chemical, the metabolic activity of treated and control cultures using the resazurin reduction test (RRT), which measures the amount of fluorescent resofurin produced by living cells. […] A dose-dependent inhibition of cell proliferation was only observed for epiconicol (3a). […] The toxicity of epiconicol observed in our model is in agreement with data obtained by Caroll and co-workers on a panel of cancer cells.
(§6) Human primary fibroblasts were purchased from Biopredic International (Rennes, France). Immortalized murine L929 cells and human MCF7 breast adenocarcinoma, PA1 ovary teratocarcinoma and PC3 androgen-resistant prostate carcinoma cells were obtained from the European Collection of Cell Cultures (ECACC, Salibury, UK). All were cultured at 37 °C under 5% CO2 and maintained in Eagle’s minimum essential medium (Gibco-BRL, Paisley, Scotland) supplemented with 10% fetal calf serum, vitamins and antibiotics (Gibco™, Cergy-Pontoise, France) as described previously.
(§7) The cytotoxicity of each treatment was determined after a 48 h exposure to each chemical (6 concentrations in triplicate, each in DMSO 0.5%) by means of the resazurin reduction test (RRT) that measures the amount of fluorescent resorufin produced by living cells. Assays were carried out at 530/590 nm accordingly to the procedure described by Barthomeuf et al.. IC50 values (mean ± S.D.) were calculated with the ALLFIT program and were expressed in μM.

[5] = tested on: MCF7 breast adenocarcinoma cells; experiment: Resazurin reduction test (RRT) cytotoxicity; type: cell-based, human; settings: for IC50: Homo sapiens
Protocol: as §5, §6, §7

[6] = tested on: PC3 androgen-resistant prostate carcinoma cells; experiment: Resazurin reduction test (RRT) cytotoxicity; type: cell-based; settings: Homo sapiens
Protocol: as §5, §6, §7

[7] = tested on: L-929 murine immortalized cells; experiment: Resazurin reduction test (RRT) cytotoxicity; type: cell-based; settings: Mus musculus
Protocol: as §5, §6, §7

human normal fibroblasts = experiment: Resazurin reduction test (RRT) cytotoxicity; type: cell-based; settings: Fibroblast
Protocol: as §5, §6, §7

S.s granularis eggs = experiment: HPLC analysis of cytoplasmic extracts of treated sea urchin eggs; type: in vitro ADME, Sphaerechinus granularis; settings: eggs treated with 5 μM
Protocol: To test the latter hypothesis, S.s granularis eggs were treated with 5 μM of methoxyconidiol, a concentration that inhibits their division. Sea urchin eggs were incubated 1, 40 and 90 minutes post-fertilization (p.f.) in the presence of methoxyconidiol. Cytoplasmic extracts of treated and control eggs were further prepared. Organic extracts of the cytoplasmic preparations were finally obtained and analyzed by HPLC (Figure 3).
Figure 3 HPLC analysis of methoxyconidiol (System WATERS, column: synergy 4 μm RP max; elution water: methanol under a gradient; UV detection 285 nm; flow: 0.3 mL/min) A: control compound (methoxyconidiol) B: analysis after Solid Phase Extraction at 1, 40 and 90 minutes after fertilization (min p.f.).
Preparation of cytoplasmic extracts was based on the technique described by Collas and Poccia. Gametes of P. lividus were collected in two separate beakers. Sperm was maintained undiluted on ice and eggs were stored at 19 °C until use. Sperm was diluted to 10% in Filtered Sea Water (FSW) and eggs were at 26 eggs/μL in FSW. […]
Cytoplasmic extracts of treated and control eggs were extracted with CH3OH and CH2Cl2 and analyzed by HPLC. […] This fraction was analyzed in HPLC (column: Phenomenex synergy 4μ max RP; elution with water and methanol under gradient, starting from 30% to 0% of water during 15 minutes; flow: 0.3 mL/min; detection photodiode array, UV at 285 nm).

sea urchin embryos = tested on: sea urchin embryos; parameters: method as in PMID 17448456; settings: cited from earlier work
Micrococus luteus = tested on: Micrococus luteus; parameters: method as in PMID 17448456; settings: cited from earlier work
Staphyclococcus aureus = tested on: Staphyclococcus aureus; parameters: method as in PMID 3404153, PMID 7608321; settings: cited from earlier work
Streptococcus faecalis = tested on: Streptococcus faecalis; parameters: method as in PMID 3404153, PMID 7608321; settings: cited from earlier work
[8] = Sphaerechinus granularis, 85 min
[9] = Paracentrotus lividus, 85 min, read-out: IC50 P. lividus, egg division, 85 minutes after fertilization

SMILES: COc1ccc2c(c1)[C@H]1C=C(C)CC[C@H]1C(C)(C)O2 (relative stereo) [3b]
- IC50 [1, 8]: > 25 µM
- IC50 [2, 9]: > 25 µM
- antibacterial effect (in words) (Micrococcus luteus): totally inactive
- antibacterial effect (in words) (Escherichia coli): totally inactive

SMILES: COc1ccc(O)c([C@@H]2C=C(C)CC[C@@H]2C(C)(C)OC)c1 (relative stereo) [5b]
- IC50 ([1]; Sphaerechinus granularis, 85 min, egg division, 85 minutes after fertilization): > 25 µM
- IC50 ([2]; Paracentrotus lividus, 85 min, egg division, 85 minutes after fertilization, read-out: IC50 P. lividus): > 25 µM

SMILES: CC1=C[C@@H]2c3cc(O)ccc3OC(C)(C)[C@@H]2CC1 [3a, epiconicol]
- IC50 [1, 8]: 9.8 ± 1.3 µM
- IC50 [3]: 37 to 69 µM
- antibacterial effect (in words) (Micrococcus luteus): weakly active
- MIC (Micrococcus luteus): 100 µM (≈ 24.4 µg/mL)
- antibacterial effect (in words) (Escherichia coli): weakly active
- MIC (Escherichia coli; Escherichia coli, 24 h): 800 µM (≈ 195 µg/mL)
- cultures killed ([4]; PA1, at 5 μM): 30%
- cultures killed ([5]; MCF7, at 5 μM): 30%

SMILES: Cc1ccc2c(c1)-c1cc(O)ccc1OC2(C)C [4a, didehydroconicol]
- activity on egg division (in words) ([1]; S. granularis eggs): inactive
- IC50 [1, 8]: > 25 µM
- IC50 [2, 9]: 11.3 ± 0.8 µM
- IC50 ([6]; 48 h): > 100 µM
- IC50 ([7]; L929, 48 h): > 100 µM
- IC50 (human normal fibroblasts; Homo sapiens, 48 h): > 100 µM
- antibacterial effect (in words) (Micrococcus luteus): weakly active
- MIC (Micrococcus luteus): 500 µM (≈ 120 µg/mL)
- IC50 ([4]; 48 h): > 100 µM
- IC50 ([5]; MCF7, 48 h): > 100 µM

SMILES: COc1ccc2c(c1)-c1cc(C)ccc1C(C)(C)O2 [4b, O-methyldidehydroconicol]
- IC50 [1, 8]: > 25 µM
- IC50 [2, 9]: > 25 µM
- antibacterial effect (in words) (Micrococcus luteus): totally inactive
- antibacterial effect (in words) (Escherichia coli): totally inactive

SMILES: COC(C)(C)[C@H]1CCC(C)=C[C@H]1c1cc(O)ccc1O [5a, methoxyconidiol]
- level of the compound in cytoplasmic extracts during incubation (S.s granularis eggs; 1, 40 and 90 minutes post-fertilization, HPLC): did not decrease significantly
- penetration through sea urchin cell membranes (S.s granularis eggs; presence in the cytoplasm): penetrates through sea urchin cell membranes
- IC50 ([1]; egg division, 85 minutes after fertilization, listed as methoxyconidiol): 4.3 µM
- IC50 ([1]; egg division, 85 minutes after fertilization): 0.8 µM
- IC50 ([2]; egg division, 85 minutes after fertilization, listed as methoxyconidiol, read-out: IC50 P. lividus): 0.8 µM
- IC50 ([2]; egg division, 85 minutes after fertilization, read-out: IC50 P. lividus): 4.3 ± 0.1 µM
- IC50 ([6]; PC3, 48 hour exposure, 10% serum, RRT, read-out: IC50): > 100 µM
- IC50 ([7]; L929, L-929, 48 hour exposure, 10% serum, RRT, read-out: IC50): > 100 µM
- IC50 (human normal fibroblasts; human normal fibroblasts, 48 hour exposure, 10% serum, RRT, read-out: IC50): > 100 µM
- melting point: 197 °C
- effect on sea urchin embryos during cell division (sea urchin embryos): disturbs mitotic spindle assembly leading to a cell cycle arrest during metaphase/anaphase transition
- IC50 ([4]; PA1, 48 hour exposure, 10% serum, RRT, read-out: IC50): > 100 µM
- IC50 ([5]; MCF7, 48 hour exposure, 10% serum, RRT, read-out: IC50): > 100 µM

SMILES: CC(C)=CCCC1(C)C=Cc2cc(O)ccc2O1 (centres unmarked) [cordiachromene A]
- growth inhibition (in words) (Micrococus luteus): moderately inhibits
- growth inhibition (in words) (Staphyclococcus aureus): moderately inhibits
- growth inhibition (in words) (Streptococcus faecalis): moderately inhibits
